The results in this text go back to patent US11034650B2, “Compounds useful for treating a Mannheimia haemolytica or Histophilus somni infection” (Intervet Inc., priority 2016, dated 2021).

Converted amounts (≈) assume the structure as drawn.

Holding throughout (type): cell-based
Assay [1] deals with Mannheimia haemolytica MH 6357 (M7/2, reference strain, cattle infection strain). As to the kind of experiment: MIC, broth-microdilution (CLSI VET01-A4), strain MH 6357. Particulars: Mannheimia haemolytica strain MH 6357, broth-microdilution; unit assumed. The method, boiled down: (§1)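 Two-fold serial dilutions of each compound were prepared, bacteria were grown in them, and plates were then inspected visually. No turbidity at the lowest concentration defined the MIC.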

The test system of assay [2] is Mannheimia haemolytica MH 6374 (ATCC 33396, reference strain). Description: MIC, broth-microdilution (CLSI VET01-A4), strain MH 6374. The settings on record: Mannheimia haemolytica strain MH 6374, broth-microdilution; unit assumed. The method, boiled down: as §1
The test system of assay [3] is Mannheimia haemolytica MH 10720 (154, BRD field isolate). As to the kind of experiment: MIC, broth-microdilution (CLSI VET01-A4), strain MH 10720. Particulars: Mannheimia haemolytica strain MH 10720, broth-microdilution; unit assumed. The method in brief:
as §1
In general terms: In broth dilution the organism is exposed to a series of concentrations in liquid medium.

The subject of assay [4] is Mannheimia haemolytica MH 12587 (1071, BRD field isolate, macrolide-resistance: erm+, E+). Description: MIC, broth-microdilution (CLSI VET01-A4), strain MH 12587. The settings on record: Mannheimia haemolytica strain MH 12587, broth-microdilution; unit assumed. The method, boiled down:
as §1

Assay [5] has as its system Mannheimia haemolytica MH 13065 (XB0446-6003.9, BRD field isolate). Description: MIC, broth-microdilution (CLSI VET01-A4), strain MH 13065. Particulars: Mannheimia haemolytica strain MH 13065, broth-microdilution; unit assumed. The method, boiled down: as §1
Assay [6] concerns Mannheimia haemolytica MH 13093 (XB0472-6014.1, BRD field isolate). As to the kind of experiment: MIC, broth-microdilution (CLSI VET01-A4), strain MH 13093. The settings on record: Mannheimia haemolytica strain MH 13093, broth-microdilution; unit assumed. The method, boiled down:
as §1

The subject of assay [7] is Pasteurella multocida PM 6267 (P 2225 (L386), reference strain, mouse infection strain). As to the kind of experiment: MIC, broth-microdilution (CLSI VET01-A4), strain PM 6267. The settings on record: Pasteurella multocida strain PM 6267, broth-microdilution; unit assumed. The method in brief:
as §1

In assay [8] the test system is Pasteurella multocida PM 6391 (ATCC 43137, reference strain). Description: MIC, broth-microdilution (CLSI VET01-A4), strain PM 6391. The settings on record: Pasteurella multocida strain PM 6391, broth-microdilution; unit assumed. The method in brief:
as §1

Assay [9] relates to Pasteurella multocida PM 10775 (080130003051, BRD field isolate). As to the kind of experiment: MIC, broth-microdilution (CLSI VET01-A4), strain PM 10775. Particulars: Pasteurella multocida strain PM 10775, broth-microdilution; unit assumed. The method, boiled down:
as §1

Assay [10] concerns Pasteurella multocida PM 12080 (IV102277-0093, BRD field isolate). As to the kind of experiment: MIC, broth-microdilution (CLSI VET01-A4), strain PM 12080. Particulars: Pasteurella multocida strain PM 12080, broth-microdilution; unit assumed. The method, boiled down: as §1

Compound `Cc1cnc(CNCc2ccc(C#Cc3ccc(C(=O)N[C@H](C(=O)NO)C(C)(C)O)cc3)cn2)o1` [Compound 334] displayed an MIC MH 6357 in [1] of 0.4 mg/L (≈ 0.838 µM). In addition, the MIC MH 6374 in assay [2] came to 0.4 mg/L (≈ 0.838 µM). In [3], this compound showed an MIC MH 10720 of no more than 0.1 mg/L. In assay [4], this compound yielded an MIC MH 12587 of 1.6 mg/L (≈ 3.35 µM). Also, the MIC MH 13065 in [5] was 0.8 mg/L (≈ 1.68 µM). In assay [6], this compound had an MIC MH 13093 of 1.6 mg/L (≈ 3.35 µM). In assay [7], the MIC PM 6267 came out at 0.4 mg/L (≈ 0.838 µM). Moreover, the MIC PM 6391 in assay [8] amounted to 0.4 mg/L (≈ 0.838 µM). Besides, the MIC PM 10775 in assay [9] is no more than 0.1 mg/L. In assay [10], this compound registered an MIC PM 12080 of 0.2 mg/L (≈ 0.419 µM).
Compound `CSC(C)(C)[C@H](NC(=O)c1ccc(C#Cc2ccc(CNC3CC3)nc2)cc1)C(=O)NO` [Compound 335] gave an MIC MH 6357 in assay [1] of 0.4 mg/L (≈ 0.884 µM). In assay [2], the MIC MH 6374 is 0.8 mg/L (≈ 1.77 µM). In addition, in assay [3], the MIC MH 10720 was no more than 0.1 mg/L. In addition, the MIC MH 12587 in [4] amounted to 3.1 mg/L (≈ 6.85 µM). For the same compound, the MIC MH 13065 in assay [5] was determined as 0.4 mg/L (≈ 0.884 µM). This compound had an MIC MH 13093 in assay [6] of 0.8 mg/L (≈ 1.77 µM). In addition, the MIC PM 6267 in assay [7] was 0.4 mg/L (≈ 0.884 µM). In assay [8], the MIC PM 6391 came out at 0.4 mg/L (≈ 0.884 µM). Further, the MIC PM 10775 in [9] was no more than 0.1 mg/L. In assay [10], this compound came in with an MIC PM 12080 of 0.2 mg/L (≈ 0.442 µM).
`C=CCNCc1ccc(C#Cc2ccc(C(=O)N[C@H](C(=O)NO)C(C)(C)SC)cc2)cn1` [Compound 336]: the MIC MH 6357 in [1] worked out at 0.8 mg/L (≈ 1.77 µM). In addition, the MIC MH 6374 in assay [2] was found to be 0.8 mg/L (≈ 1.77 µM). The MIC MH 10720 in assay [3] was found to be 0.2 mg/L (≈ 0.442 µM). Further, the MIC MH 12587 in assay [4] worked out at 3.1 mg/L (≈ 6.85 µM). This compound returned an MIC MH 13065 in assay [5] of 1.6 mg/L (≈ 3.54 µM). For the same compound, in [6], the MIC MH 13093 is 1.6 mg/L (≈ 3.54 µM). In addition, the MIC PM 6267 in assay [7] amounted to 0.8 mg/L (≈ 1.77 µM). The MIC PM 6391 in assay [8] worked out at 1.6 mg/L (≈ 3.54 µM). The compound further came in with an MIC PM 10775 in [9] of no more than 0.1 mg/L. Also, in assay [10], the MIC PM 12080 turned out to be 0.8 mg/L (≈ 1.77 µM).
As to `COCCNCc1ccc(C#Cc2ccc(C(=O)N[C@H](C(=O)NO)C(C)(C)SC)cc2)cn1` [Compound 337], the MIC MH 6357 in [1] is 3.1 mg/L (≈ 6.59 µM). The compound also had an MIC MH 6374 in [2] of 3.1 mg/L (≈ 6.59 µM). This compound had an MIC MH 10720 in assay [3] of 0.8 mg/L (≈ 1.7 µM). In [4], this compound showed an MIC MH 12587 of 6.3 mg/L (≈ 13.4 µM). This compound also gave an MIC MH 13065 in [5] of 6.3 mg/L (≈ 13.4 µM). This compound registered an MIC MH 13093 in assay [6] of 3.1 mg/L (≈ 6.59 µM). The compound also came in with an MIC PM 6267 in [7] of 3.1 mg/L (≈ 6.59 µM). The compound further yielded an MIC PM 6391 in assay [8] of 1.6 mg/L (≈ 3.4 µM). This compound had an MIC PM 10775 in assay [9] of 0.2 mg/L (≈ 0.425 µM). For the same compound, in assay [10], the MIC PM 12080 worked out at 0.8 mg/L (≈ 1.7 µM).
`CSC(C)(C)C(NC(=O)c1ccc(C#Cc2ccc(CN3CCOCC3)nc2)cc1)C(=O)NO` (centres unmarked) [Compound 338] displayed an MIC MH 6357 in assay [1] of 3.1 mg/L (≈ 6.42 µM). Besides, the MIC MH 6374 in assay [2] amounted to 6.3 mg/L (≈ 13.1 µM). In assay [3], the MIC MH 10720 was 0.8 mg/L (≈ 1.66 µM). This compound also came in with an MIC MH 12587 in assay [4] of 6.3 mg/L (≈ 13.1 µM). In assay [5], this compound showed an MIC MH 13065 of 3.1 mg/L (≈ 6.42 µM). For the same compound, the MIC MH 13093 in [6] stood at 6.3 mg/L (≈ 13.1 µM). In addition, in assay [7], the MIC PM 6267 was found to be 3.1 mg/L (≈ 6.42 µM). This compound also gave an MIC PM 6391 in [8] of 0.8 mg/L (≈ 1.66 µM). In [9], this compound came in with an MIC PM 10775 of no more than 0.1 mg/L. The compound further had an MIC PM 12080 in assay [10] of 0.4 mg/L (≈ 0.829 µM).
Take `CSC(C)(C)[C@H](NC(=O)c1ccc(C#Cc2ccc(CNCc3ccccc3)nc2)cc1)C(=O)NO` [Compound 339]: the MIC MH 6357 in assay [1] was found to be 0.8 mg/L (≈ 1.59 µM). The compound further had an MIC MH 6374 in assay [2] of 1.6 mg/L (≈ 3.18 µM). In assay [3], this compound had an MIC MH 10720 of no more than 0.1 mg/L. Moreover, in [4], the MIC MH 12587 came out at 1.6 mg/L (≈ 3.18 µM). The compound further displayed an MIC MH 13065 in assay [5] of 0.8 mg/L (≈ 1.59 µM). In assay [6], this compound yielded an MIC MH 13093 of 1.6 mg/L (≈ 3.18 µM). The compound also showed an MIC PM 6267 in assay [7] of 0.8 mg/L (≈ 1.59 µM). Besides, the MIC PM 6391 in assay [8] was 0.8 mg/L (≈ 1.59 µM). Besides, the MIC PM 10775 in [9] is no more than 0.1 mg/L. This compound showed an MIC PM 12080 in [10] of 0.2 mg/L (≈ 0.398 µM).
For `COc1ccc(CNCc2ccc(C#Cc3ccc(C(=O)N[C@H](C(=O)NO)C(C)(C)SC)cc3)cn2)cc1` [Compound 340], the MIC MH 6357 in assay [1] amounted to 0.8 mg/L (≈ 1.5 µM). The compound further came in with an MIC MH 6374 in assay [2] of 1.6 mg/L (≈ 3 µM). Besides, in assay [3], the MIC MH 10720 worked out at 0.4 mg/L (≈ 0.751 µM). For the same compound, the MIC MH 12587 in assay [4] was determined as 3.1 mg/L (≈ 5.82 µM). In assay [5], the MIC MH 13065 was determined as 1.6 mg/L (≈ 3 µM). For the same compound, the MIC MH 13093 in assay [6] was determined as 1.6 mg/L (≈ 3 µM). Besides, the MIC PM 6267 in [7] was determined as 1.6 mg/L (≈ 3 µM). The MIC PM 6391 in assay [8] amounted to 1.6 mg/L (≈ 3 µM). The MIC PM 10775 in [9] is 0.2 mg/L (≈ 0.375 µM). Further, the MIC PM 12080 in assay [10] is 0.8 mg/L (≈ 1.5 µM).
Take `CSC(C)(C)[C@H](NC(=O)c1ccc(C#Cc2ccc(CNCc3ccncc3)nc2)cc1)C(=O)NO` [Compound 341]: the MIC MH 6357 in assay [1] stood at 0.8 mg/L (≈ 1.59 µM). In assay [2], this compound showed an MIC MH 6374 of 1.6 mg/L (≈ 3.18 µM). Moreover, in [3], the MIC MH 10720 is 0.2 mg/L (≈ 0.397 µM). For the same compound, in assay [4], the MIC MH 12587 was 3.1 mg/L (≈ 6.16 µM). The compound further registered an MIC MH 13065 in assay [5] of 1.6 mg/L (≈ 3.18 µM). The compound further registered an MIC MH 13093 in assay [6] of 1.6 mg/L (≈ 3.18 µM). The MIC PM 6267 in [7] was determined as 1.6 mg/L (≈ 3.18 µM). Besides, the MIC PM 6391 in [8] was 0.8 mg/L (≈ 1.59 µM). The compound further had an MIC PM 10775 in assay [9] of 0.2 mg/L (≈ 0.397 µM). In assay [10], this compound came in with an MIC PM 12080 of 0.4 mg/L (≈ 0.794 µM).
